# In US12527833B2, “Pharmaceutical composition made from hydrophobic phytochemicals dispersed in sesame oil to enhance bioactivity” (ARJUNA NATURAL PVT. LTD., priority 2017, dated 2026):
# Legend:
# [1] = system: Carrageenan induced paw edema; assay: Carrageenan paw edema in rats: Boswellia dispersion at different SSA values (Example 9); assay type: in vivo
# Method: The animals were housed in polypropylene cages and maintained under standard animal house conditions (12:12 hour light/dark cycle at 24±2° C. and 45-65% relative humidity). The rats had free access to standard pellet diet and water. 15 rats were divided into 5 groups comprising of 3 rats in each group. The rats were deprived of food, but had free access to drinking water for 12 h prior to the experiment. The treatment was as follows: After 12 hour fasting, baseline paw volume was recorded for each rat using digital plethysmometer (Ugo Basile, […]). Carrageenan (0.1 ml of 1%) in saline (0.9% NaCl) was injected into the plantar surface of the right hind paw of the animals. The experimental groups were given the designated extract/standard orally, 30 minutes prior to the injection of the carrageenan. After injection of carrageenan, paw volume was recorded at 3 hr to 6 hr post carrageenan. The edema was expressed as an increase in the volume of paw from baseline value, and the percentage of inhibition for each rat was calculated. • Group 1: 50 mg/Kg BS-1 (SSA 200-500 m^2/kg). • Group 2: 50 mg/Kg, BS-2 (SSA 700-1000 m^2/kg) • Group 3: 50 mg/Kg BS-3 (SSA 1100-1200 m^2/kg) • Group 4: 50 mg/Kg BS-4 (SSA>1300 m^2/kg) • Group 5: 10 mg/Kg Diclofenac.
# [2] = system: Carrageenan induced paw oedema; assay: Carrageenan paw oedema in rats: Boswellia extract, sesame oil and their combinations (Example 8); assay type: in vivo
# Method: The animals were housed in polypropylene cages and maintained under standard animal house conditions (12:12 hour light/dark cycle at 24±2° C. and 45-65% relative humidity). The rats had free access to standard pellet diet and water. […] were divided into 9 groups comprising of 3 rats in each group. The rats were deprived of food, but had free access to drinking water for 12 h prior to the experiment. The treatment was as follows: • Group 1: Untreated control. • Group 2: 10 mg/Kg Diclofenac. • Group 3: 20 mg/Kg Hydrophobic Boswellia extract with 2% AKBA (made as per example 2). • Group 4: 20 mg/Kg Hydrophobic Boswellia extract with 10% AKBA (made as per example 1). • Group 5: 30 mg/Kg Sesame seed oil about 0.9% sesame lignans. • Group 6: 50 mg/Kg Simple blend of Boswellia extract with 2% AKBA with Sesame seed oil with 10% sesame lignans (made as per example 6; using AKBA2). • Group 7: 50 mg/Kg Homogenized dispersion of hydrophobic Boswellia extract with 2% AKBA with sesame oil with 10% sesame lignans. (Made as per example 4). • Group 8: 50 mg/Kg Simple hydrophobic Boswellia extract with 10% AKBA with sesame oil with 10% sesame lignans. (Made as per example 6, F1). • Group 9: 50 mg/Kg Homogenized dispersion hydrophobic Boswellia extract with 10% AKBA with sesame oil with 10% sesame lignans. (Made as per example 4). After 12 hour fasting, baseline paw volume was recorded for each rat using digital plethysmometer (Ugo Basile, […]). Carrageenan (0.1 ml of 1%) in saline (0.9% NaCl) was injected into the plantar surface of the right hind paw of the animals. The experimental groups were given the designated extract/standard orally, 30 minutes prior to the injection of the carrageenan. […] The oedema was expressed as an increase in the volume of paw from baseline value, and the percentage of inhibition for each rat was calculated.
# [3] = system: Carrageenan Induced Paw Edema; assay: Anti-inflammatory activity in carrageenan induced paw edema in rats (Example 11); assay type: in vivo, SD rats; conditions: 6 h after carrageenan; oral; dose per group 10-100 mg/Kg; 6 rats per group
# Method: SD rats (M/F) weighing 180-220 gm. were selected for the study. The animals were acclimatized for a period of five days and they were fed with standard pellet diet and water ad libitum. After five days of acclimatization, the rats were deprived of food, but had free access to drinking water for 12 hours prior to the experiment. Right hind paw of each rat was marked at the tibio-tarsal junction and baseline paw volume was determined using a digital plethysmometer (UGO BASILE, ITALY). Rats were divided into different groups keeping 6 rats in each group. Test sample/standard NSAID/vehicle was fed orally at designated dose. After 30 minutes of test sample/standard/vehicle, 0.1 ml carrageenan (1% suspension in 0.9% NaCl) was injected to the animals in subplantar region of the right hind paw. The paw volume was again determined for all the animals at 6 h after carrageenan injection and percentage inhibition was calculated by using following formula: […]
smiles,measurement,setting,value
O=C(O)Cc1ccccc1Nc1c(Cl)cccc1Cl [Diclofenac],Percentage inhibition (%) 3HR,"[1]; 3 hr post carrageenan, oral, BS samples 50 mg/kg, Diclofenac 10 mg/kg",68%
same,Percentage inhibition (%) 6HR,"[1]; 6 hr post carrageenan, oral, BS samples 50 mg/kg, Diclofenac 10 mg/kg",94%
same,Avrage percentage inhibition,[1]; average of 3HR and 6HR,81%
same,percentage inhibition 1 h,"[2]; 1 h post carrageenan, oral, dose per group 10-50 mg/Kg",64%
same,percentage inhibition 3 h,"[2]; 3 h post carrageenan, oral, dose per group 10-50 mg/Kg",84%
same,percentage inhibition 5 h,"[2]; 5 h post carrageenan, oral, dose per group 10-50 mg/Kg",93%
same,percentage inhibition 6 h,"[2]; 6 h post carrageenan, oral, dose per group 10-50 mg/Kg",97%
same,Average percentage inhibition,"[2]; average of 1, 3, 5, 6 h",85%
same,Percentage inhibition in 6 Hours,[3],86%
